Earlier results in patent US8426587B2, “Haloallylamine inhibitors of SSAO/VAP-1 and uses therefor” (Pharmaxis Ltd., priority 2007, dated 2013).

Target: T1, rat SSAO/VAP-1 (Rattus norvegicus, UniProt O08590)
T1 sequence (O08590 1-763): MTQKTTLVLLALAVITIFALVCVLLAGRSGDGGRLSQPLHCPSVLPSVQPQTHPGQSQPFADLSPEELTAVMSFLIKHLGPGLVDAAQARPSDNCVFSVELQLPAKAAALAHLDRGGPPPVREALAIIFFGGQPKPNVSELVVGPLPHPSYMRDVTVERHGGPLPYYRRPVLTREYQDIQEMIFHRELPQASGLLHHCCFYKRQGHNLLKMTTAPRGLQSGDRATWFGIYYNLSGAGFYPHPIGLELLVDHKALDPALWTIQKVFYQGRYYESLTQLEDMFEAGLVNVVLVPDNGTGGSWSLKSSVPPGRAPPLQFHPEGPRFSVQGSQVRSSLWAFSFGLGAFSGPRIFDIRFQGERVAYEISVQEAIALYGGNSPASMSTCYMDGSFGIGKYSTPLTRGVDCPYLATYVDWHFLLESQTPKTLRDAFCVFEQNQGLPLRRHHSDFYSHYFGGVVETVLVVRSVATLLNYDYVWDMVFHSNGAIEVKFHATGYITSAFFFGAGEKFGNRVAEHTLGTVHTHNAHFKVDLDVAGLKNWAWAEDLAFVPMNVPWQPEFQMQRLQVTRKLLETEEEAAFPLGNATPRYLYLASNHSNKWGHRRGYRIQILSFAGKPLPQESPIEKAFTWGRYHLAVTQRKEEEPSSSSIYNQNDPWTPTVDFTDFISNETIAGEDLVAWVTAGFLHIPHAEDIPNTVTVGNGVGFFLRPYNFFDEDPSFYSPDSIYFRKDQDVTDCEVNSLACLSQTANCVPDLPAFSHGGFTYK
Details: reports in the literature; cited from earlier work

For `NC/C(=C/Cl)c1ccccc1` [MDL72274], the “Selectivity for rat SSAO/VAP-1 compared to MAO-A and MAO-B” value is given as “selectively inhibiting rat SSAO/VAP-1”.
